The test system of data set [1] is X-ALD fibroblast cell lines. Description: Cell health (proliferation, morphology, death) of treated X-ALD fibroblasts. It is filed as cell-based, human. Conditions: for cell survival of X-ALD cell lines: 100 μM, two X-ALD cell lines; for proliferation and morphology of cells: after 72 hours. As to the method:
Human primary fibroblasts. Human skin fibroblasts were obtained from X-ALD patients through the Neurology Outpatient Clinic of the Academic Medical Center. Written informed consent was received from each patient. X-ALD diagnosis was confirmed by VLCFA and ABCD1 mutation analysis. Control fibroblasts were obtained from male anonymous volunteers with written informed consent. Fibroblasts were cultured in Dulbecco's modified Eagle's medium (DMEM) with L-glutamine and 4.5 g/L glucose, supplemented with 10% fetal calf serum, 2.5 mM HEPES, 100 U/ml penicillin and 100 U/ml streptomycin. Cells were cultured at 37° C. in a humidified 5% CO2 atmosphere. All fibroblast cell lines used were tested routinely for mycoplasma. All tests were negative.
Preparation of stock solutions. 10 mM stock solutions in DMSO were prepared by weighing the amount of compound (1 and 3 and their respective active metabolites, 2 and 4) as indicated in Table 2. Stock solutions were stored at room temperature in the dark. For each incubation, the amount of tissue culture medium needed was calculated and a stock solution of tissue culture medium with the final concentration of the to-be-tested compound was prepared. Tissue culture medium was removed from the cells, cells were washed once with PBS and the tissue culture medium with the compounds was added. If an experiment lasted longer than three days, the tissue culture medium and compounds were refreshed (using a fresh preparation) after three days until the end of the experiment.
Two different X-ALD fibroblast cell lines were incubated in duplicate with four compounds at three dosages as highlighted in Table 3.
4 X-ALD cell lines were incubated with 10 μM of 4 compounds 1, 2, 3, and 4. The effect of treatment on ABCD2 expression was analyzed at day 3 and day 10. For the 10 day incubation, tissue culture medium and compounds were refreshed at day 3 and day 6.

In data set [2] the test system is X-ALD cell lines. Description: D3-C22:0 (VLCFA) beta-oxidation in intact X-ALD cells. The format is cell-based, human. The note with it: 0.1 μM; 10 day treatment; 5 X-ALD cell lines. As to the method: The effect of treatment on D3-C22:0 beta-oxidation in intact cells. Peroxisomal beta-oxidation activity was measured essentially as described by incubating cells with 30 μM deuterium-labeled C22:0 (D3-C22:0) (Kemp et al., Clinical Chemistry 50: 1824-1826 (2004)). Cells were seeded at approximately 40% confluency in T75 flasks in DMEM. The next day, medium was replaced with medium containing 30 μM D3-C22:0 and assayed compounds at their final concentration. […] Each 72 h, the tissue culture medium and compounds was refreshed. At the end of the experiment cells were harvested and VLCFA analyzed as described (Valianpour et al., Molecular Genetics and Metabolism, 79: 189-196 (2003)).
(§1) VLCFA measurement. VLCFA were analyzed by electrospray ionization mass spectrometry (ESI-MS) as described (Valianpour et al., Molecular Genetics and Metabolism, 79: 189-196 (2003)).
(§2) 5 different X-ALD cell lines were incubated for 6 days with compounds 1, 2, 3, and 4 at 10 μM, 5 mM 4PBA (sodium 4-phenylbutyrate), or 0.1 μM sobetirome. On Day 6, 30 μM D3C22:0 was added to assess the effect of treatment on beta-oxidation and de novo D3C26:0 synthesis. 6 untreated control cells as well as 5 different untreated X-ALD cells were included to allow assessment of the treatment effect. The total set consisted of 41 experiments

Data set [3] has as its system X-ALD cell lines. Description: De novo D3-C26:0 synthesis from D3-C22:0 in intact X-ALD cells. The note with it: 10 day treatment, 5 X-ALD cell lines. The format is cell-based, human. As to the method:
The effect of treatment on D3-C26:0 synthesis in intact cells. The effect of certain compounds of the invention on the synthesis of D3-C26:0 from D3-C22:0 was measured in cultured skin fibroblasts from controls and X-ALD patients. Cells were seeded at approximately 40% confluency in T75 flasks in DMEM. The next day, medium was replaced with medium containing 30 μM D3-C22:0 and the assayed compounds at their final concentration. […] Each 72 h, the tissue culture medium and compounds was refreshed. At the end of the experiment cells were harvested and VLCFA analyzed as described (Valianpour et al., Molecular Genetics and Metabolism, 79: 189-196 (2003)).
as §1, §2

Data set [4] concerns ABCD1−/− mice. As to the kind of experiment: Whole blood VLCFA-LPC levels in an in vivo model of X-ALD. Also on record: species or system mouse. Conditions: for C26:0-LPC Difference in Mean Change from Baseline / C26:0-LPC % Difference versus Vehicle: initial cohort, whole blood; for Least Squares Mean Change from Baseline Whole Blood C26:0-LPC Levels: second cohort, daily IP. As to the method: (§3) Animals. Male ABCD1−/− mice were developed using the Taconic 129SvEv background strain. Animals were housed 3-4/cage under a 12-hour lighting cycle (7 AM-7 PM light) and controlled temperature (22° C.) in the rodent facility. They were fed standard mouse chow and had access to drinking water ad libitum. Mice were between 2 and 3 months of age at the beginning of each study.
(§4) Study Protocol. Mice were injected once daily intraperitoneal with either drug or vehicle. For blood collection, ˜50 μL of blood was obtained by facial vein puncture using a sterile lancet. Blood was collected in a 1.5 ml microcentrifuge tube containing dried dipotassium EDTA and mixed by gentle inversion at least ten times before storing at −20° C. Blood was obtained in this manner following two, four, and six weeks of treatment. Following blood collection at six weeks, animals were sacrificed by cervical dislocation. Additional blood for preparation of plasma was obtained via cardiac puncture, and blood placed in Microtainer tubes. Brain, spinal cord, adrenal glands, testis, and liver were excised and snap frozen in liquid nitrogen for future analyses.
An initial cohort of 16 mice were randomized 3:1 to receive compound 3 or placebo, once daily for six weeks. […] Treated animals continued to experience progressive declines in C26:0-LPC through six weeks.
(§5) Based on the encouraging results of the initial cohort, a second, larger, cohort was evaluated. A total of 20 mice were randomized 1:1 to receive daily compound 3 or vehicle, by IP administration, for six weeks.

Data set [5] concerns ABCD1−/− mice. Description: Plasma VLCFA-LPC levels in an in vivo model of X-ALD (second cohort). More on the design: species or system mouse. As to the method:
as §3, §4, §5
During the second cohort study, blood was obtained as described in the Methods section. At the six week time point sufficient blood was collected to permit plasma VLCFA analyses at weeks two, four and six. Plasma is considered by many to be a more reliable measurement of VLCFA levels, because of reduced analytical interference from other analytes, as well as reduced variability of the measurements.

For `Cc1cc(OC[P@@]2(=O)OCC[C@@H](c3cccc(Cl)c3)O2)cc(C)c1Cc1ccc(O)c(C(C)C)c1` [Compound 1], the “cell survival of X-ALD cell lines” value in data set [1] is “dead within 24 hours”. For the same compound, the “proliferation and morphology of cells” value in data set [1] (0.1 or 10 μM) is on record as “looked healthy”.
As to `Cc1cc(OCC(=O)O)cc(C)c1Cc1ccc(O)c(C(C)C)c1` [sobetirome], the “effect on VLCFA beta-oxidation” value in the data set with X-ALD cell lines [2] is reported as “did not show any beneficial effect”. In addition, in the data set with X-ALD cell lines [3] (0.1 μM), the “effect on VLCFA de novo synthesis” value is given as “did not show any beneficial effect”.
As for `Cc1cc(OCP(=O)(O)O)cc(C)c1Cc1ccc(O)c(C(C)C)c1` [Compound 2], the “proliferation and morphology of cells” value in data set [1] (0.1, 1 or 10 μM) is recorded as “looked healthy”.
With `Cc1cc(OCP(=O)(O)O)cc(C)c1Cc1ccc(O)c(Cc2ccccc2)c1` [Compound 4], the “proliferation and morphology of cells” value in data set [1] (0.1, 1 or 10 μM) is recorded as “looked healthy”.
Take `Cc1cc(OCP(=O)(OCOC(=O)C(C)(C)C)OCOC(=O)C(C)(C)C)cc(C)c1Cc1ccc(O)c(Cc2ccccc2)c1` [Compound 3]: in data set [1], the “cell survival of X-ALD cell lines” value is given as “dead within 24 hours”. Moreover, the “proliferation and morphology of cells” value in data set [1] (0.1 or 10 μM) was “looked healthy”. Further, the “C20:0-, C22:0-, and C24:0-LPC levels” value with ABCD1−/− mice [4] (after six weeks of treatment) was “significant reductions”. Moreover, the “C26:0-LPC Difference in Mean Change from Baseline” value with ABCD1−/− mice [4] (week 2) was -0.052 µM; with ABCD1−/− mice [4] (week 4), -0.081 µM. The “C26:0-LPC % Difference versus Vehicle” value with ABCD1−/− mice [4] (week 2, p NS) is on record as 0%; in the data set with ABCD1−/− mice [4] (week 4, p NS) it was −11%; with ABCD1−/− mice [4] (week 6, p<0.0001) it was −40%. The “Least Squares Mean Change from Baseline Whole Blood C26:0-LPC Levels” value with ABCD1−/− mice [4] (week 2, p NS versus vehicle) was -0.021 µM; with ABCD1−/− mice [4] (week 4, p<0.01 versus vehicle) it was -0.096 µM; with ABCD1−/− mice [4] (week 6, p<0.005 versus vehicle), -0.12 µM. The “Plasma C20:0-LPC % Difference vs. Vehicle” value with ABCD1−/− mice [5] (week 6, p<0.0001) is on record as −54%. Further, the “Plasma C22:0-LPC % Difference vs. Vehicle” value in the data set with ABCD1−/− mice [5] (week 6, p<0.0001) is −43%. For the same compound, in the data set on ABCD1−/− mice [5] (week 6, p<0.0001), the “Plasma C26:0-LPC % Difference vs. Vehicle” value is −29%. In addition, the “Plasma C24:0-LPC % Difference vs. Vehicle” value in the data set on ABCD1−/− mice [5] (week 6, p<0.005) is −21%.
With `O=C([O-])CCCc1ccccc1.[Na+]` [Compound 4PBA, sodium 4-phenylbutyrate], the VLCFA synthesis entry in the data set on X-ALD cell lines [3] (5 mM) is listed as “near normal levels”.

(Values after patent publication US12440502B2, “Use of thyroid beta-agonists” (priority 2016, dated 2025).)
